According to publication PMC4745926, “Absorption, Metabolism, and Excretion by Freely Moving Rats of 3,4-DHPEA-EDA and Related Polyphenols from Olive Fruits (Olea europaea)” (Journal of Nutrition and Metabolism, 2016):
Entries after “also recorded” stand apart in the source; their conditions may differ. Like-named read-outs stand apart in the source and are kept apart here.

Test: Jugular vein plasma levels after intravenous administration in jugular vein cannulated, freely moving rats
Format: in vivo, Wistar ST rats
Details: for Cmax: analyte HT, at 5 min after intravenous administration, read-out: C max of HT in plasma
Procedure: SPF Wistar ST rats (6 weeks of age, male, 180 ± 20 g of body weight) were purchased from Japan SLC Inc. (Hamamatsu, Japan). The rats were housed in an air-conditioned room at 22 ± 2°C under cycles of 12 hours dark and 12 hours light and given free access to a commercial diet and water for a week. The rats were then fasted for over 16 hours before the experiments. The present study was approved by the Animal Care and Use Committee at Kagawa University, and the rat treatment conformed to the Rules of Animal Experiments at Kagawa University. After fasting, the rats were cannulated with a polyethylene tube (PE-50; 0.58 mm I.D., 0.965 mm O.D.) into the jugular vein, portal vein, or bile duct under anesthesia with isoflurane inhalation using a WP-SAA01 (LMS Co., Ltd., Tokyo, Japan). A small hole was made in the vein or duct using pointed scissors and cannulated with the polyethylene tube. After inserting the tube, it was fixed at the edge of the vein or duct. The jugular vein and portal vein cannulas penetrated under the skin and were then tied at the back of the rats, and the bile duct cannula was tied at the abdomen of the rats. Bile duct-cannulated rats were then restrained in a Bollman cage (Natsume Seisakusho Co., Ltd., Tokyo, Japan). Before further experiments, the rats were allowed to recover from anesthesia. 3,4-[…] (300 mg/kg body weight; 936.51 μmol/kg) dissolved in 50% polyethylene glycol aqueous solution was administered orally via a stomach tube to the portal vein cannulated rats. Blood samples (450 μL) were then collected using a heparinized syringe attached to the cannula before administration and 5, 15, 30, 60, 120, and 240 min after administration. Urine was also collected before administration and 0 to 2 h and 2 to 4 h after administration. For intravenous administration, 3,4-[…] (10 mg/kg; 31.22 μmol/kg) was injected into the jugular vein, and blood (450 μL) was collected using a heparinized syringe before administration and 5, 15, 30, 60, 120, and 240 min after administration via the jugular vein cannula. The blood (450 μL) collected was immediately cooled on ice and centrifuged at 15,000 rpm for 5 min at 4°C to obtain over 200 μL plasma. Urine was also collected before administration and 0 to 2 h and 2 to 4 h after administration. Bile was collected via the bile duct cannula before administration and 0 to 2 h and 2 to 4 h after intravenous administration. The collected plasma, urine, and bile were immediately stored in an ice box until further analyses. HT (oral administration: 100 mg/kg; 648.66 μmol/kg, intravenous administration: 10 mg/kg; 64.87 μmol/kg) and Ole (oral administration: 300 mg/kg; 555.02 μmol/kg, intravenous administration: 10 mg/kg; 18.50 μmol/kg) were investigated using the same method as described above. Metabolites were deconjugated by using β-glucuronidase (500 U) and sulfatase (50 U) in 50 μL 625 mM MOPS (pH 6.8), which was added to 200 μL of plasma, urine, or bile. The mixture was incubated for 45 min at 37°C and subjected to extraction using QuEChERS [33]. […] Shimadzu, Kyoto, Japan) equipped with a Shim-pack XR-ODS column (3.0 mm I.D. × 100 mm; Shimadzu, Kyoto, Japan) at 40°C with a mobile phase of 0.5% TFA-1% acetonitrile aqueous solution (A) and 0.5% TFA-75% acetonitrile aqueous solution (B). The elution conditions are described as follows: isocratic elution of 0% B was maintained for 4.0 min; linear gradient 0 to 4% B, 4.0-4.5 min; linear gradient 4.0-16.0% B, 4.5-16.0 min; linear gradient 16.0-100% B, 16.0-25.0 min; isocratic elution of 100% B, 25.0-26.0 min; and linear gradient 100 to 0% B, 26.0-26.1 min, with a flow rate of 0.5 mL/min. Injection volume was 50 μL. All eluted peaks were detected at 279 nm with a diode array detector (SPD-M20A; Shimadzu, Kyoto, Japan). The absorption of 3,4-[…], and Ole was evaluated by dose-normalized 4 h area under the curve (AUC0→4 h/Dose) and C max/Dose values (Table 2). […]

[1] = after intravenous administration, 10 mg/kg

| SMILES | Time at which intact compound disappeared from the systemic circulation [1] | Cmax (male, Wistar ST, rat, plasma, 10 mg/kg) | Other metabolites in plasma throughout the blood sampling (after intravenous administration of Ole, 10 mg/kg) | concentration at 5 min (male, Wistar ST, rat, plasma, after intravenous administration, 10 mg/kg, 18.50 μmol/kg, read-out: Ole detected in the plasma at 5 min) | AUC0→4 h-i.v./Dosei.v. (analyte HT in jugular vein plasma after intravenous administration) | Cmax (10 mg/kg) | AUC0→4 h-i.v./Dosei.v. (analyte HVA in jugular vein plasma after intravenous administration) | AUC0→4 h-i.v./Dosei.v. (analyte HVAOH in jugular vein plasma after intravenous administration) | Detection of intact 3,4-DHPEA-EDA in plasma and hematocytes (jugular vein, after intravenous administration, 10 mg/kg, 31.22 μmol/kg, 10 mg/kg) |
| --- | --- | --- | --- | --- | --- | --- | --- | --- | --- |
| OCCc1ccc(O)c(O)c1 [Hydroxytyrosol, 2-(3,4-dihydroxyphenyl) ethyl alcohol, reference compound] | about 15 min | 1740 µM | – | – | – | – | – | – | – |
| C/C=C1/[C@H](O[C@@H]2O[C@H](CO)[C@@H](O)[C@H](O)[C@H]2O)OC=C(C(=O)OC)[C@H]1CC(=O)OCCc1ccc(O)c(O)c1 [Oleuropein, reference compound] | ≤ 60 min | – | could not be detected | 502 µM | – | – | – | – | – |
| CC=C(C=O)C(CC=O)CC(=O)OCCc1ccc(O)c(O)c1 (stereo not shown) [3,4-DHPEA-EDA, 3,4-dihydroxyphenylethyl elenolate dialdehydic form] | – | – | – | – | 259.2 μM·min·kg/μmol | ~131 µM | 22.4 μM·min·kg/μmol | 56.0 μM·min·kg/μmol | not detected; also recorded: not observed |
